Laboratory results: US20070249590A1, “Substituted indolo[2,3-a]pyrrolo[3,4-c]carbazole compounds useful in treating kinase disorders” (priority 2005, published 2007)

Target: T1, JAK3 (JH1 and JH2 domain) (Homo sapiens, UniProt P52333)
T1 sequence (P52333 521-1111 limits assumed): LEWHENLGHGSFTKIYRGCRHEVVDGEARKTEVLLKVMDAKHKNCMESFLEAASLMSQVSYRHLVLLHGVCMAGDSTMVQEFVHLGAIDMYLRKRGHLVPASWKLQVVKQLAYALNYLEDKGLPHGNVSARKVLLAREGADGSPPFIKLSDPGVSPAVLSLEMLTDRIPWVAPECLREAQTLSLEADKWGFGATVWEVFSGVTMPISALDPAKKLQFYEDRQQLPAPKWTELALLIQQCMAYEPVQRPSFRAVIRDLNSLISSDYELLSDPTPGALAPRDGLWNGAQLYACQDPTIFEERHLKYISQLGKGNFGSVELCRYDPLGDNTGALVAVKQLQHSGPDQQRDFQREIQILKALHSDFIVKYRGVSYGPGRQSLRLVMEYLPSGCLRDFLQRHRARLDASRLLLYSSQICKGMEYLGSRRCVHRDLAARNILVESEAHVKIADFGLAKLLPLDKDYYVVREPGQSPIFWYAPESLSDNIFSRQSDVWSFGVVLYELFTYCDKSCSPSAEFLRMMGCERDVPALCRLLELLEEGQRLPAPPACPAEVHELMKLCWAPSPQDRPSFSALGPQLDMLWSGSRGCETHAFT
Test: JAK3 Kinase Assay (ELISA of peptide substrate phosphorylation)
Assay type: biochemical
Conditions: purified JAK3 enzyme, 10 μM ATP, biotinylated peptide substrate, 1 hour at room temperature
Outline: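 Sf21-baculovirus-expressed JAK3 (JH1+JH2), glutathione-bead purified, with biotinylated peptide substrate (in buffer containing 10 μM ATP) in HEPES pH 7.5/MgCl2/DTT, 1 h RT. Product was captured on Neutravidin, detected with HRP anti-phosphotyrosine (PY99)/TMB, OD 450/650 nm. Triplicate 16-point half-log series from 200 μM gave IC50; otherwise % inhibition at 1 μM.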

IC50: 1100 nM
SMILES: O=C1NC(=O)c2c1c1c3ccccc3n3c1c1c2c2ccccc2n1CC(OC(=O)N1CCN(C2CCCCC2)CC1)C(O)C3 (stereo not shown) [Cpd 101, 12,13-{2-[(4-cyclohexyl-piperazin-1-yl)carbonyloxy]-3-hydroxy-butan-1,4-yl}-12,13-dihydro-5,7-dioxo-6H-indolo[2,3-a]pyrrolo[3,4-c]carbazole]
